According to article PMC10952572, “Improved PIEZO1 agonism through 4‐benzoic acid modification of Yoda1” (British Journal of Pharmacology, 2023):

Assays:
[1] = target: T1, mPIEZO1 (Mus musculus, UniProt E2JF22); test: Pre-treatment with analogue before Yoda1 stimulus, Ca2+ assay in mPIEZO1-TREx cells; type: cell-based; conditions: for 0.5 μM Yoda1-evoked peak ΔCa2+i (ΔF340/380), median fold difference compared to DMSO pretreatment: mPIEZO1-TREx, 10 μM compound 30 min pretreatment before 0.5 μM Yoda1
T1 construct: expressed in transfected cells
T1 sequence (E2JF22 whole entry): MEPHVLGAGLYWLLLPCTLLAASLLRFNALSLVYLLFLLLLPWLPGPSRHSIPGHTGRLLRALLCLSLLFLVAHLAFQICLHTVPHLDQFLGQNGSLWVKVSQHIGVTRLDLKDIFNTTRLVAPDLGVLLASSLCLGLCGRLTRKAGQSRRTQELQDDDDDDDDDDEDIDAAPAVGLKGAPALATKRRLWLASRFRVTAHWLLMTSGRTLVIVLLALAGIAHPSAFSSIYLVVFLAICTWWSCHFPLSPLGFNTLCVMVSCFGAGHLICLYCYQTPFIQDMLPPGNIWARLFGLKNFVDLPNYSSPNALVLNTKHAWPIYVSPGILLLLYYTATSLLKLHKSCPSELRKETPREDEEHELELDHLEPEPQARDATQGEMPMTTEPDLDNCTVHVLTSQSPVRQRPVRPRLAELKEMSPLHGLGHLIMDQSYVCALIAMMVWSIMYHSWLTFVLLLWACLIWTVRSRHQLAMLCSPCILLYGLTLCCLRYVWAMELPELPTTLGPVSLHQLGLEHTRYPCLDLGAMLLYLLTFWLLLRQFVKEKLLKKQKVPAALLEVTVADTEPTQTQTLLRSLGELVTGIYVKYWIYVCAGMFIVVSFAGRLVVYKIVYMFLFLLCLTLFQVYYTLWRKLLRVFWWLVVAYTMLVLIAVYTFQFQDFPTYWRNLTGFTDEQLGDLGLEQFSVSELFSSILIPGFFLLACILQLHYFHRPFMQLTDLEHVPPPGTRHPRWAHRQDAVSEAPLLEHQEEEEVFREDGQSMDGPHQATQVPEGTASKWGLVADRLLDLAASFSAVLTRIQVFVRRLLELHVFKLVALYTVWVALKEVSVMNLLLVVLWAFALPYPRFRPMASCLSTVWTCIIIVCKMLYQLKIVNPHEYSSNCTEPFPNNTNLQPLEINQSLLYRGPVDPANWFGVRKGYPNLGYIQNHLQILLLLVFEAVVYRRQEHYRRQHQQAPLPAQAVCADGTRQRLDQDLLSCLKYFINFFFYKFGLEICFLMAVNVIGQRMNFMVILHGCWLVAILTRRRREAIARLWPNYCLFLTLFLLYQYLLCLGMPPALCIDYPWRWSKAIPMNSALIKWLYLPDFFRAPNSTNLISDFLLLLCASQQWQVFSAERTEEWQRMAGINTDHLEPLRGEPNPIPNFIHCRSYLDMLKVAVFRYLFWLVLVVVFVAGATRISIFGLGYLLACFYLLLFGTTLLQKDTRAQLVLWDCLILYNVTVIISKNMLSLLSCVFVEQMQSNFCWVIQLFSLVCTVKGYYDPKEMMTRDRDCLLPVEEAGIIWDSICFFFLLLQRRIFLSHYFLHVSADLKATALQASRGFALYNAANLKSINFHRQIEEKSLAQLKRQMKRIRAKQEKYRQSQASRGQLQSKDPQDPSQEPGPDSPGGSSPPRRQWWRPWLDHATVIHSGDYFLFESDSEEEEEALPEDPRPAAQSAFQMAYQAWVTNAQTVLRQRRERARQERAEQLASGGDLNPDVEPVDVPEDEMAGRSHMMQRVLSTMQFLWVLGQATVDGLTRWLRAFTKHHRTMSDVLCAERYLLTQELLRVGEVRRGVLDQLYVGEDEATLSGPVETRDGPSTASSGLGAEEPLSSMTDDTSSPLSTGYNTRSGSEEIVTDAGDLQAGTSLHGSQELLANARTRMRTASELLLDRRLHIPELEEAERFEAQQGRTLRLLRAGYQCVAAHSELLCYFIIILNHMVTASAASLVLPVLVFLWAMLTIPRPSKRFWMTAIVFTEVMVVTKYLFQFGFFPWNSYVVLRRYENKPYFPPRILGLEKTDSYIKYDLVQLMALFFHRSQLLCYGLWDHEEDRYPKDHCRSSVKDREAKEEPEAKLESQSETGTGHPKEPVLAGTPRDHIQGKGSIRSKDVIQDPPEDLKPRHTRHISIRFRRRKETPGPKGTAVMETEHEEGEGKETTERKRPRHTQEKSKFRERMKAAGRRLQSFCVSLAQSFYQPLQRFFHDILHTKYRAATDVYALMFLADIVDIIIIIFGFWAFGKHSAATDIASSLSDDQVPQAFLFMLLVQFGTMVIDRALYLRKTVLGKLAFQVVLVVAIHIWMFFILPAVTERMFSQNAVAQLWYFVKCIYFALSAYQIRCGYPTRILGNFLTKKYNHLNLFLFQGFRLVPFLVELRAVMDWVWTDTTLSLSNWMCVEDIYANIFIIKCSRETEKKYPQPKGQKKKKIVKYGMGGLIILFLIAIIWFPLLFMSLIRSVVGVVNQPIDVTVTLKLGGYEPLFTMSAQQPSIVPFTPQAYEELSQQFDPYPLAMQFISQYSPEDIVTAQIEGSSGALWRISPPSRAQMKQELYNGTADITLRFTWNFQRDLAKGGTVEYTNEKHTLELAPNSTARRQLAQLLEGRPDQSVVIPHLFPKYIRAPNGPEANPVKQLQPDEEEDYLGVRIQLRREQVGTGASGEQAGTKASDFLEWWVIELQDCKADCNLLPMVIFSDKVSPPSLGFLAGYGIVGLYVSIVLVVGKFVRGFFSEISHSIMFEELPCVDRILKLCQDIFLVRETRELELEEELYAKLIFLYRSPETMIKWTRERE

[2] = Stability in plasma; type: in vitro ADME; conditions: mouse plasma, 1 μM, over 2 h
Procedure: Pooled heparinised mouse plasma was warmed to 37°C for 10 min, mixed and cleared of aggregated protein by centrifugation. Aliquots of the clear supernatant were transferred into the assay plate. Following equilibration to 37°C, biotransformation was initiated by adding and mixing of 1 μM compound solution in a final incubation volume of 300 μl; 25 μl aliquots were removed at 0, 5, 15, 30, 60 and 120 min and quenched in 300 μl ice‐cold acetonitrile containing internal standard. After storing the samples at −20°C for a minimum of 4 h, the protein in the samples was precipitated by centrifugation at 4°C, and the supernatants were analysed by LC–MS/MS to quantify the % input test compound remaining.

[3] = tested on: mouse portal vein; test: Wire myography, relaxation of phenylephrine pre-constricted vein; conditions: for Relaxation of portal vein: 0.1-10 μM, pre-constricted with 10 μM phenylephrine; for EC50: mouse portal vein pre-constricted with 10 μM phenylephrine, Hill fit
Procedure: Mice were anaesthetised with isoflurane (5% induction and 1.5% maintenance) in 95% O2 according to Schedule 1 procedure approved by the UK Home Office. The portal vein was quickly dissected and placed in Krebs solution. The Krebs PV solution consisted of 118 mM NaCl, 4.7 mM KCl, 2.5 mM CaCl2, 1.2 mM KH2PO4, 1.2 mM MgSO4·7H2O, 25.2 mM NaHCO3 and 11.1 mM glucose. By means of a dissecting microscope, adhering perivascular tissue was carefully removed and the vein was cut into 1 mm segments.
Vein segments were mounted onto two thin stainless steel wires in an isometric myograph (Multi Wire Myograph System 620M from Danish Myograph Technology [DMT]), for which the force transducer was calibrated once per month according to the manufacturer's instructions. The recording chamber was filled with gassed Krebs solution (95% O2/5% CO2, pH 7.4). The segments were then stretched to a normalised internal diameter according to the manufacturer's instructions. The mounted rings were kept in a 5 ml chamber containing Krebs solution at 37°C and continuously bubbled with a gas mixture of 95% O2 and 5% CO2 (pH 7.4). After an equilibration period of 60 min, the contractile function of the vessel was tested by replacing the Krebs solution by 60 mM K^+ solution. Following washout, the vein was contracted once with 10 μM phenylephrine and then Yoda1, KC159 or KC289 was applied with the concentrations of 0.1 to 10 μM. The NOS inhibitor, L‐NAME, (100 μM), was pre‐incubated for 20 min before the PIEZO1 modulator.
Because the anticipated effect of test compounds was to cause vessel relaxation, phenylephrine was applied to induce tension and the maximum value of this tension was defined as 0% relaxation (no relaxation). The value of tension immediately prior to application of phenylephrine was defined as 100% relaxation. Data are normalised to these values because, otherwise, the intrinsic variability in the absolute amount of tension induced by phenylephrine obscured exploration of the relaxant effect of compounds.
OriginPro 2020 was used for the analysis of myography data. Myography traces show readings taken every 0.5 or 1 s and were smoothed with the Savitzky–Golay filter set to 70 points. To compare the agonistic activity of Yoda1 analogues, basal vessel tension prior to compound injection was subtracted. Maximal tension in the presence of PE alone was used to define 0% relaxation. The tension value prior to PE application was defined as 100% relaxation. Following the addition of test compounds, tension readings were taken at the last time point of the treatments and expressed as percentage relaxation.

For `O=C(O)c1ccccc1-c1nnc(SCc2c(Cl)cccc2Cl)s1` [KC157], the “0.5 μM Yoda1-evoked peak ΔCa2+i (ΔF340/380), median fold difference compared to DMSO pretreatment” value [1] was “+1.2 fold” and the “Inhibition of the action of Yoda1” value ([1]; mPIEZO1 channels, 10 μM for 30 min prior to Yoda1) was “failed to inhibit the action of Yoda1”.
In the case of `O=C(O)c1ccc(-c2nnc(SCc3c(Cl)cccc3Cl)s2)cc1` [KC159], the Plasma stability [2] is reported as “good stability over 2 h”, the “Relaxation of portal vein” value [3] is reported as “concentration‐dependent relaxation” and the EC50 [3] is reported as 1.14 µM. For the same molecule, the “0.5 μM Yoda1-evoked peak ΔCa2+i (ΔF340/380), median fold difference compared to DMSO pretreatment” value [1] was −2.1 fold.
For `O=C([O-])c1ccc(-c2nnc(SCc3c(Cl)cccc3Cl)s2)cc1.[K+]` [KC289], the Plasma stability [2] was “good stability over 2 h”, the “Relaxation of portal vein” value [3] was “concentration‐dependent relaxation” and the EC50 ([3]; Mus musculus) was 1.2 µM. For the same molecule, the “Relaxation in portal vein from PIEZO1ΔEC mice” value ([3]; endothelial PIEZO1 deletion versus control mice) was “inhibited by endothelial PIEZO1 deletion”, the “Relaxant effect after L-NAME” value ([3]; pre-incubation with 100 μM L-NAME) was “abolishes the relaxant effect” and the “0.5 μM Yoda1-evoked peak ΔCa2+i (ΔF340/380), median fold difference compared to DMSO pretreatment” value [1] was −2.8 fold.
For `Clc1cccc(Cl)c1CSc1nnc(-c2cnccn2)s1` [Yoda1, 2‐[5‐[[(2,6‐dichlorophenyl)methyl]thio]‐1,3,4‐thiadiazol‐2‐yl]pyrazine], the Plasma stability [2] was “good stability over 2 h” and the “Relaxation of portal vein” value [3] was “concentration‐dependent relaxation”.
